Source: the supplement of paper PMC5908809

What was measured:
[1] = system: normal NK cells expanded with K562-aAPC; test: drug sensitivity score (DSS) (DSS units); higher = more sensitive; extreme values may be limits of the assay; details: 72 h; IL-2 2.5 ng/mL
Experimental: (§1)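 Drug sensitivity and resistance testing on K562-aAPC-expanded normal NK cells: 5 concentrations (10-fold steps over a 10,000-fold range), 72 h at 37 °C, viability by CellTiter-Glo normalised to DMSO and benzethonium chloride controls; DSS from the fitted curve.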

[2] = system: DERL-7 (IL-2 2.5 ng/mL); test: percent inhibition of viability; higher = more inhibition; details: 72 h
[3] = system: normal primary NK cells, pool 1 (3 donors) (IL-2 2.5 ng/mL); test: as above; details: 72 h
[4] = system: NKL (IL-2 2.5 ng/mL); test: as above; details: 72 h
[5] = system: normal primary NK cells, pool 1 (3 donors), resting (IL-2 0 ng/mL); test: as above; details: 72 h
[6] = system: SNK-6 (IL-2 2.5 ng/mL); test: as above; details: 72 h
[7] = system: normal primary NK cells, pool 3 (3 donors) (IL-2 2.5 ng/mL); test: as above; details: 72 h
[8] = system: KAI3 (IL-2 2.5 ng/mL); test: as above; details: 72 h
[9] = system: YT (IL-2 2.5 ng/mL); test: as above; details: 72 h
[10] = system: KHYG-1 (IL-2 2.5 ng/mL); test: as above; details: 72 h
[11] = system: IMC-1 (IL-2 20 ng/mL); test: as above; details: 72 h
[12] = system: NK-YS (IL-2 2.5 ng/mL); test: as above; details: 72 h
[13] = system: normal primary NK cells, pool 2 (3 donors) (IL-2 2.5 ng/mL); test: as above; details: 72 h
[14] = system: NK-92 (IL-2 2.5 ng/mL); test: as above; details: 72 h
[15] = system: normal NK cells expanded with K562-aAPC; test: as above; details: 72 h, IL-2 2.5 ng/mL
Experimental: as §1

[16] = system: DERL-7 (IL-2 2.5 ng/mL); test: drug sensitivity score (DSS) (DSS units); higher = more sensitive; extreme values may be limits of the assay; details: 72 h
[17] = system: normal primary NK cells, pool 1 (3 donors) (IL-2 2.5 ng/mL); test: as above; details: 72 h
[18] = system: NKL (IL-2 2.5 ng/mL); test: as above; details: 72 h
[19] = system: normal primary NK cells, pool 1 (3 donors), resting (IL-2 0 ng/mL); test: as above; details: 72 h
[20] = system: SNK-6 (IL-2 2.5 ng/mL); test: as above; details: 72 h
[21] = system: normal primary NK cells, pool 3 (3 donors) (IL-2 2.5 ng/mL); test: as above; details: 72 h
[22] = system: KAI3 (IL-2 2.5 ng/mL); test: as above; details: 72 h
[23] = system: YT (IL-2 2.5 ng/mL); test: as above; details: 72 h
[24] = system: KHYG-1 (IL-2 2.5 ng/mL); test: as above; details: 72 h
[25] = system: IMC-1 (IL-2 20 ng/mL); test: as above; details: 72 h
[26] = system: NK-YS (IL-2 2.5 ng/mL); test: as above; details: 72 h
[27] = system: normal primary NK cells, pool 2 (3 donors) (IL-2 2.5 ng/mL); test: as above; details: 72 h
[28] = system: NK-92 (IL-2 2.5 ng/mL); test: as above; details: 72 h

O[C@H]1CC[C@H](Nc2ncc3nc(Nc4c(F)cc(F)cc4F)n([C@H]4CCOC4)c3n2)CC1 [Tanzisertib] (max concentration tested 10000 nM)
drug sensitivity score [1]: 0.57 | percent inhibition of viability ([2]; 1 nM): 2.01% | percent inhibition of viability ([2]; 10 nM): 0.84% | percent inhibition of viability ([2]; 100 nM): 5.01% | percent inhibition of viability ([2]; 1000 nM): 1.8% | percent inhibition of viability ([2]; 10000 nM): 18.5% | percent inhibition of viability ([3]; 1 nM): -1.02% | percent inhibition of viability ([3]; 10 nM): -9.12% | percent inhibition of viability ([3]; 100 nM): -4.55% | percent inhibition of viability ([3]; 1000 nM): -5.56% | percent inhibition of viability ([3]; 10000 nM): 12.8% | percent inhibition of viability ([4]; 1 nM): -12.2% | percent inhibition of viability ([4]; 10 nM): -7.14% | percent inhibition of viability ([4]; 100 nM): 8.81% | percent inhibition of viability ([4]; 1000 nM): 20.3% | percent inhibition of viability ([4]; 10000 nM): 40% | percent inhibition of viability ([5]; 1 nM): -2.07% | percent inhibition of viability ([5]; 10 nM): -5.9% | percent inhibition of viability ([5]; 100 nM): 3.76% | percent inhibition of viability ([5]; 1000 nM): -27.5% | percent inhibition of viability ([5]; 10000 nM): -23.7% | percent inhibition of viability ([6]; 1 nM): -5.24% | percent inhibition of viability ([6]; 10 nM): -3.37% | percent inhibition of viability ([6]; 100 nM): -1.51% | percent inhibition of viability ([6]; 1000 nM): -9.49% | percent inhibition of viability ([6]; 10000 nM): -28.9% | percent inhibition of viability ([7]; 1 nM): -10.2% | percent inhibition of viability ([7]; 10 nM): -3.98% | percent inhibition of viability ([7]; 100 nM): 0.77% | percent inhibition of viability ([7]; 1000 nM): -8.69% | percent inhibition of viability ([7]; 10000 nM): 3.78% | percent inhibition of viability ([8]; 1 nM): -8.76% | percent inhibition of viability ([8]; 10 nM): -8.77% | percent inhibition of viability ([8]; 100 nM): 4.38% | percent inhibition of viability ([8]; 1000 nM): -3.26% | percent inhibition of viability ([8]; 10000 nM): 2.19% | percent inhibition of viability ([9]; 1 nM): 1.29% | percent inhibition of viability ([9]; 10 nM): 0.43% | percent inhibition of viability ([9]; 100 nM): 6.25% | percent inhibition of viability ([9]; 1000 nM): 4.44% | percent inhibition of viability ([9]; 10000 nM): 17.9% | percent inhibition of viability ([10]; 1 nM): 0.6% | percent inhibition of viability ([10]; 10 nM): 1.16% | percent inhibition of viability ([10]; 100 nM): 7.05% | percent inhibition of viability ([10]; 1000 nM): 3.25% | percent inhibition of viability ([10]; 10000 nM): 12.8% | percent inhibition of viability ([11]; 1 nM): -1.71% | percent inhibition of viability ([11]; 10 nM): -1.33% | percent inhibition of viability ([11]; 100 nM): 2.23% | percent inhibition of viability ([11]; 1000 nM): -2.89% | percent inhibition of viability ([11]; 10000 nM): 5.65% | percent inhibition of viability ([12]; 1 nM): -2.74% | percent inhibition of viability ([12]; 10 nM): -2.64% | percent inhibition of viability ([12]; 100 nM): 8.64% | percent inhibition of viability ([12]; 1000 nM): 8.4% | percent inhibition of viability ([12]; 10000 nM): 27.7% | percent inhibition of viability ([13]; 1 nM): -13.6% | percent inhibition of viability ([13]; 10 nM): -1.21% | percent inhibition of viability ([13]; 100 nM): 2.95% | percent inhibition of viability ([13]; 1000 nM): -6.75% | percent inhibition of viability ([13]; 10000 nM): 12.9% | percent inhibition of viability ([14]; 1 nM): -1.51% | percent inhibition of viability ([14]; 10 nM): -5.43% | percent inhibition of viability ([14]; 100 nM): 11.5% | percent inhibition of viability ([14]; 1000 nM): -0.78% | percent inhibition of viability ([14]; 10000 nM): 4.63% | percent inhibition of viability ([15]; 1 nM): -0.53% | percent inhibition of viability ([15]; 10 nM): 1.03% | percent inhibition of viability ([15]; 100 nM): -5.53% | percent inhibition of viability ([15]; 1000 nM): 1.96% | percent inhibition of viability ([15]; 10000 nM): 16.8% | drug sensitivity score [16]: 0.7 | drug sensitivity score [17]: 0.03 | drug sensitivity score [18]: 4.27 | drug sensitivity score [19]: 0 | drug sensitivity score [20]: 0 | drug sensitivity score [21]: 0 | drug sensitivity score [22]: 0 | drug sensitivity score [23]: 0.43 | drug sensitivity score [24]: 0 | drug sensitivity score [25]: 0 | drug sensitivity score [26]: 1.7 | drug sensitivity score [27]: 0.02 | drug sensitivity score [28]: 0

OCCn1cc(-c2cnc3nnn(Cc4ccc5ncccc5c4)c3n2)cn1 (max concentration tested 2500 nM)
drug sensitivity score [1]: 0.06 | percent inhibition of viability ([2]; 0.25 nM): -0.9% | percent inhibition of viability ([2]; 2.5 nM): -0.84% | percent inhibition of viability ([2]; 25 nM): 0.34% | percent inhibition of viability ([2]; 250 nM): -3% | percent inhibition of viability ([2]; 2500 nM): -8.26% | percent inhibition of viability ([3]; 0.25 nM): -4.03% | percent inhibition of viability ([3]; 2.5 nM): 5.55% | percent inhibition of viability ([3]; 25 nM): 18.1% | percent inhibition of viability ([3]; 250 nM): 6.24% | percent inhibition of viability ([3]; 2500 nM): 10.1% | percent inhibition of viability ([4]; 0.25 nM): -0.17% | percent inhibition of viability ([4]; 2.5 nM): 5.36% | percent inhibition of viability ([4]; 25 nM): 16.3% | percent inhibition of viability ([4]; 250 nM): 12% | percent inhibition of viability ([4]; 2500 nM): 17.6% | percent inhibition of viability ([5]; 0.25 nM): -7.9% | percent inhibition of viability ([5]; 2.5 nM): 6.66% | percent inhibition of viability ([5]; 25 nM): 4.48% | percent inhibition of viability ([5]; 250 nM): 7.02% | percent inhibition of viability ([5]; 2500 nM): 11.4% | percent inhibition of viability ([6]; 0.25 nM): -14.8% | percent inhibition of viability ([6]; 2.5 nM): -17.6% | percent inhibition of viability ([6]; 25 nM): -15.8% | percent inhibition of viability ([6]; 250 nM): -7.55% | percent inhibition of viability ([6]; 2500 nM): 1.66% | percent inhibition of viability ([7]; 0.25 nM): -4.09% | percent inhibition of viability ([7]; 2.5 nM): 3.45% | percent inhibition of viability ([7]; 25 nM): 7.9% | percent inhibition of viability ([7]; 250 nM): -5.94% | percent inhibition of viability ([7]; 2500 nM): 7.18% | percent inhibition of viability ([8]; 0.25 nM): -0.76% | percent inhibition of viability ([8]; 2.5 nM): -5.72% | percent inhibition of viability ([8]; 25 nM): 5.28% | percent inhibition of viability ([8]; 250 nM): 8.13% | percent inhibition of viability ([8]; 2500 nM): 18.2% | percent inhibition of viability ([9]; 0.25 nM): -6.67% | percent inhibition of viability ([9]; 2.5 nM): -5.28% | percent inhibition of viability ([9]; 25 nM): -6.34% | percent inhibition of viability ([9]; 250 nM): -0.92% | percent inhibition of viability ([9]; 2500 nM): 12.8% | percent inhibition of viability ([10]; 0.25 nM): -6.94% | percent inhibition of viability ([10]; 2.5 nM): -4.08% | percent inhibition of viability ([10]; 25 nM): -4.27% | percent inhibition of viability ([10]; 250 nM): 1.49% | percent inhibition of viability ([10]; 2500 nM): 7.29% | percent inhibition of viability ([11]; 0.25 nM): -3.49% | percent inhibition of viability ([11]; 2.5 nM): 3.05% | percent inhibition of viability ([11]; 25 nM): -2.66% | percent inhibition of viability ([11]; 250 nM): 5.69% | percent inhibition of viability ([11]; 2500 nM): 6.58% | percent inhibition of viability ([12]; 0.25 nM): -3.62% | percent inhibition of viability ([12]; 2.5 nM): -4.61% | percent inhibition of viability ([12]; 25 nM): -4.57% | percent inhibition of viability ([12]; 250 nM): 1.28% | percent inhibition of viability ([12]; 2500 nM): 16.9% | percent inhibition of viability ([13]; 0.25 nM): -2.43% | percent inhibition of viability ([13]; 2.5 nM): 3.77% | percent inhibition of viability ([13]; 25 nM): 5.1% | percent inhibition of viability ([13]; 250 nM): -2.16% | percent inhibition of viability ([13]; 2500 nM): 4.71% | percent inhibition of viability ([14]; 0.25 nM): -3.39% | percent inhibition of viability ([14]; 2.5 nM): 13.7% | percent inhibition of viability ([14]; 25 nM): -1.59% | percent inhibition of viability ([14]; 250 nM): 11.9% | percent inhibition of viability ([14]; 2500 nM): 33.2% | percent inhibition of viability ([15]; 0.25 nM): -1.81% | percent inhibition of viability ([15]; 2.5 nM): -5.59% | percent inhibition of viability ([15]; 25 nM): -1.09% | percent inhibition of viability ([15]; 250 nM): 4.36% | percent inhibition of viability ([15]; 2500 nM): 10.7% | drug sensitivity score [16]: 0 | drug sensitivity score [17]: 0.34 | drug sensitivity score [18]: 3.7 | drug sensitivity score [19]: 0.02 | drug sensitivity score [20]: 0 | drug sensitivity score [21]: 0 | drug sensitivity score [22]: 0.81 | drug sensitivity score [23]: 0.06 | drug sensitivity score [24]: 0 | drug sensitivity score [25]: 0 | drug sensitivity score [26]: 0.5 | drug sensitivity score [27]: 0 | drug sensitivity score [28]: 3.17
